In assay [1] the target is T1, WWP1 (Homo sapiens, UniProt Q9H0M0).
T1 construct: purchased Ubiquigent 63-0034-025/30033/D
Description: WWP1 MALDI-MS ubiquitin depletion assay (auto-ubiquitination). It counts as biochemical. Conditions: 30 min pre-incubation, 90 minutes at 37° C. The protocol: Modulators designed in these ways were tested for HECT domain E3 ligase activity in a MALDI TOF assay of auto-ubiquitination (De Cesare et al, Cell Chem. Biol, 2018, 25, 1117)
UBE1 (E-305 Boston Biochem), UBE2D1 (E2-616 Boston Biochem), WWP1 (Ubiquigent #63-0034-025/30033/D), ubiquitin variants (Boston Biochem; ubiquitin: U-100H; WT-His6-Ub: U-530; K27R-His6-Ub:UM-HK27R; K27O-His6-Ub: UM-HK27O), alpha-cyano-4-hydroxycinnamic acid (CHCA), ATP, trifluoroacetic acid (Millipore Sigma, St. Louis, Mo.), 384-well round-bottom polypropylene microplates (781280, Greiner, Stonehouse, UK), 384-well Anchorchip MALDI targets and Peptide Calibration Standard II (Bruker Daltonics, Billerica, Mass.).
Protocol: The WWP1 ubiquitin depletion assay consists of recombinant UBE1 (5 nM), UBE2D1 conjugating enzyme (60 nM) and WWP1 ligase (50 nM) in a 10 mM HEPES pH 8.0 containing 0.1 mg/mL BSA, 10 mM MgCl2, 1 mM ATP and 1500 nM ubiquitin. Screening was performed by dispensing 3.5 μL of an enzyme solution containing UBE1 (10 nM), UBE2D1 (120 nM), WWP1 (100 nM), ubiquitin ([…]) to a 384-well round bottom polypropylene plates followed by incubation at 37° C. for 30 min. Reactions were initiated by the addition of 3.5 μL of an ATP solution (2000 nM) then incubated at 37° C. for 90 minutes before being quenched by the addition of 5 μL of a 50 mM EDTA solution containing 750 nM of a ubiquitin labelled with a histidine expression tag (m/z=9460.0 Da).
For detection of ubiquitin and the ubiquitin-6His internal standards, 50 nL of quenched reaction was dispensed onto a 384-well Anchorchip MALDI target plate (Bruker) pre-coated with a uniform layer of CHCA crystals immediately followed by 200 nL of a 3 mg/mL CHCA matrix solution (6 mg of CHCA dissolved in 0.7 mL of 100% ethanol and 1.3 mL of 0.31% aqueous TFA) using a TTP Labtech Mosquito liquid handler. Spectra for all reactions were acquired on a Bruker AutoFlex II in positive linear TOF mode from 1000 laser shots with ion suppression below 4000 Da. Spectra were analyzed for response using a centroid peak-fitting algorithm to quantify ubiquitin (m/z=8564.0 Da) and ubiquitin-6His (m/z=9460.0 Da) followed taking the ratio of intensities of ubiquitin and the ubiquitin-6His internal standard.
For compound screening, 140 nL of diluted compound in 100% DMSO was added to the WWP1 enzyme solution and pre-incubated for 30 minutes prior to reaction initiation.

In a further assay the test system is DU-145 cells. In words: Cellular proliferation assay (MTS) in DU-145 cells. Conditions: Homo sapiens, 72 hours of incubation, read-out: IC50 values for selected compounds in DU-145 cells. It is filed as cell-based. The protocol:
DU-145 cells were trypsinized, counted via Trypan blue method and resuspended in DMEM complete medium (10% FBS with Pen-strep antibiotics) as described in Lieu et al, Mol Cel Endorinol, 87:19-28, 1992. Cells were seeded at a density of 100 cells per well in 1001 volume of 96-well cell culture plate and were incubated overnight at 37° C. in 5% CO2 incubator. The next day, cells were given fresh media and the test compounds were added in different concentrations. After 72 hours of incubation, MTS reagent (procured from Promega) was added to the cells and they were incubated for an additional 2 hours. Finally, the plates read in the absorbance mode at 490 nm using an ELISA plate reader (Perkin Elmer Victor X3 plate reader). The % growth values were calculated as [(T−T0)/(C−T0)]×100, where T0 is the OD of cells at the time of compound addition, C is the vehicle control, T is the OD of the test concentrations at 72 hours. Percentage inhibition values were calculated using 100−([(T−T0)/(C−T0)]×100). IC50 values were calculated in graph pad prism software using dose response curve nonlinear regression method.

Assay [2] concerns phosphorylated AKT and phosphorylated Ribosomal Protein S6. In words: Western blot of AKT and S6 phosphorylation in Hs578T cells. It is filed as cell-based, human. Conditions: 48 hours, indicated concentrations. The procedure: Hs578T cells (human triple negative breast cancer) were treated with the indicated concentration of COMPOUND 1 for 48 hours prior to harvesting. The “0” concentration is DMSO only (0.5%, same as was used for compound doses). […] Analysis occurred via western blot using the indicated antibodies. Quantification by densitometry of the bands from the western blot are presented for phosphorylated AKT/Total AKT and phosphorylated Ribosomal Protein S6/Total Ribosomal Protein S6. COMPOUND 1 reduced both AKT and S6 phosphorylation relative to their respective total protein levels.
The data presented here are consistent with the previous replicate in Hs578T cells, and the observation is preserved in another TNBC cell line, BT-20. COMPOUND 1 reduces the phospho-AKT/vinculin loading control and phospho-S6/total S6 ratios. Methods are the same as the previous replicate, using the indicated doses.
Hs578T cells (human triple negative breast cancer) were treated with the indicated concentration of COMPOUND 6 for 48 hours prior to harvesting. The “0” concentration is DMSO only (0.5%, same as was used for compound doses). […] Analysis occurred via western blot using the indicated antibodies.
The data presented here are consistent with the previous replicate in Hs578T cells. COMPOUND 6 reduces the phospho-AKT/vinculin loading control and phospho-S6/total S6 ratios. Methods are the same as the previous replicate, using the indicated doses.
Hs578T cells (human triple negative breast cancer) were treated with the indicated concentration of COMPOUND 7 for 48 hours before harvesting. The “0” concentration is DMSO only (0.5%, same as was used for compound doses). […] Analysis occurred via western blot using the indicated antibodies.
The data presented here are consistent with the previous replicate in Hs578T cells. COMPOUND 7 reduces the phospho-S6/vinculin loading control ratio. Methods are the same as the previous replicate, using the indicated doses.
(§1) Hs578T cells (human triple negative breast cancer) were treated with the indicated concentration of COMPOUND 8 for 48 hours and then harvested. The “0” concentration is DMSO only (0.5%, same as was used for compound doses). […] Analysis occurred via western blot using the indicated antibodies.
On the technique in general: Immunoblotting shows a protein as a band on a membrane.

Assay [3] relates to PD-L1. In words: Western blot of PD-L1 in Hs578T cells. It counts as cell-based, human. Conditions: 48 hours, indicated concentrations of compound. The protocol: Hs578T cells (human triple negative breast cancer) were treated with the indicated concentration of COMPOUND 1 for 48 hours prior to harvesting. The “0” concentration is DMSO only (0.5%, same as was used for compound doses). […] Analysis occurred via western blot using the indicated antibodies. Quantification by densitometry of the bands from the western blot are presented for PD-L1/Vinculin (loading control) in the absence of interferon gamma, and glycosylated/non-glycosylated PD-L1 in the presence of interferon gamma.
The data presented here are consistent with the previous replicate in Hs578T cells, and the observation is preserved in another TNBC cell line, BT-20. COMPOUND 1 increases PD-L1 levels and the glycosylated PD-L1/non-glycosylated PD-L1 ratio. Methods are the same as the previous replicate, using the indicated doses.
Hs578T cells (human triple negative breast cancer) were treated with the indicated concentration of COMPOUND 6 for 48 hours before harvesting. The “0” concentration is DMSO only (0.5%, same as was used for compound doses). […] Analysis occurred via western blot using the indicated antibodies. PD-L1 protein levels were reduced relative to the vinculin loading control upon compound treatment. This effect is observed in the presence and absence of interferon gamma (IFN, 25 ng/mL in cell culture media during the drug treatment).
Hs578T cells (human triple negative breast cancer) were treated with the indicated concentration of COMPOUND 7 for 48 hours prior to harvesting. The “0” concentration is DMSO only (0.5%, same as was used for compound doses). […] Analysis occurred via western blot using the indicated antibodies. PD-L1 protein levels were reduced relative to the vinculin loading control upon 319-02 treatment.
The data presented here are consistent with the previous replicate in Hs578T cells. COMPOUND 7 reduces the PD-L1/vinculin loading control ratio. Methods are the same as the previous replicate, using the indicated doses.
as §1
PD-L1-APC (BD Biosciences) and a matched isotype control were used to visualize PD-L1 cell surface expression by flow cytometry (1:250 dilution). As shown by western blot, the knockdown of WWP1 yielded increased PD-L1 protein levels, including an increase in the glycosylated band.
Total RNA was isolated using an RNeasy kit from Qiagen.

The next assay has as its system SARS-CoV-2. It is filed as cell-based. Conditions: Vero cells, 36 hours.
In assay [4] the test system is WWP1. In words: Western blot of WWP1 protein levels after siRNA, shRNA, ASO or interferon gamma. Conditions: A549 and Hs578T cells, 25 ng/mL, 48 hours.
Protocol: Cells were treated with 10 nM pooled siRNA (IDT) and harvested 48 hours after. Cells were lysed in RIPA buffer containing protease and phosphatase inhibitors on ice.
Prior to harvesting, A549 and Hs578T cells were cultured for 48 hours in the presence or absence of interferon gamma (25 ng/mL in the cell culture media) or 10 nM pooled siRNA (IDT). Cells were lysed in RIPA buffer containing protease inhibitors on ice. Lysates were analyzed by western blot using the indicated antibodies.
Hs578T, BT-20 and A549 cells were cultured for 48 hours in the presence or absence of interferon gamma (25 ng/mL in the cell culture media), presence of absence of 10 nM pooled siRNA (IDT), or both. […] Lysates were analyzed by western blot using the indicated antibodies. […]
Cells were treated with 10 nM pooled siRNA for the indicated gene (IDT) and harvested 48 hours after (split for protein and RNA analysis). […] Lysates were analyzed by western blot using the indicated antibodies.
Cells were treated with 10 nM pooled siRNA for the indicated gene (IDT) and harvested after 48 hours. […] Lysates were analyzed by western blot using the indicated antibodies.
RNAiMax Lipofectamine (Thermo) was used as the transfection reagent at the manufacturer's recommended concentration. […] Western blots were used to quantify protein levels, using antibodies against Vinculin and WWP1.
The subject of the next assay is WWP1 mRNA. In words: qPCR of WWP1 mRNA in Du145 shRNA cell lines. Conditions: vs empty vector control lines.
Assay [5] deals with PD-L1. In words: Western blot of PD-L1 in multiple cancer cell lines after siRNA, shRNA or interferon gamma. It counts as cell-based, human. Conditions: 25 ng/mL, 48 hours. The text has this:
Relative to the vinculin loading control, interferon gamma upregulates PD-L1 protein levels within TNBCs shown to express PD-L1 at baseline.
Analysis occurred via western blot using the indicated antibodies.

T1 sequence (Q9H0M0 whole entry): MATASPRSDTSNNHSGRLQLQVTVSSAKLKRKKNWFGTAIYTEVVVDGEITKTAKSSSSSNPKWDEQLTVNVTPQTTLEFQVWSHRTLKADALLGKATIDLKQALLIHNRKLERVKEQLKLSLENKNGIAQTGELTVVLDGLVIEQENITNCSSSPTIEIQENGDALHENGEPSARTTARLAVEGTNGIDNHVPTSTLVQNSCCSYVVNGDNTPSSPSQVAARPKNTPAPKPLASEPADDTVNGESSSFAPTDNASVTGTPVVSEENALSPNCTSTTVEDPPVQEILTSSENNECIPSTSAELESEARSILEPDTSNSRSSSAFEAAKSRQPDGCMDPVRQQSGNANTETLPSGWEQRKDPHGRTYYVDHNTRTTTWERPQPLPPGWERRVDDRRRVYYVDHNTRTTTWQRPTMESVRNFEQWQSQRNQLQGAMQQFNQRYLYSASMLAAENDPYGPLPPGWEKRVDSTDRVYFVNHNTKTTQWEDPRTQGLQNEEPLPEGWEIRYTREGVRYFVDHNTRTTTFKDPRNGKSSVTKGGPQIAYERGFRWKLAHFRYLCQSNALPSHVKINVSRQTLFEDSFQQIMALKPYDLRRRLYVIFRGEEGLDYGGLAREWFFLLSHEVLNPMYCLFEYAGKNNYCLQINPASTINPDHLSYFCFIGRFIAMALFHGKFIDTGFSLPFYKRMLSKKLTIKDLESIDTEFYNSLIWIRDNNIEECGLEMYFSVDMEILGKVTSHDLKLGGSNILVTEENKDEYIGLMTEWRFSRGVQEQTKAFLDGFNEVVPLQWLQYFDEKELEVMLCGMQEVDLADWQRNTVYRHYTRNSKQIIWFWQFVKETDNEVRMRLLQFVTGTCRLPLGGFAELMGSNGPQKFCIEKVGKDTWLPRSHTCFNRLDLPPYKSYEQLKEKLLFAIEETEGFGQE
Protocol for WWP1 mRNA: All shRNA constructs were introduced through lentiviral infection under puromycin selection. Cells were cultured for 48 hours in the presence or absence of interferon gamma (25 ng/mL in the cell culture media) at which time a fraction of cells was split for protein and mRNA evaluation. For protein, cells were lysed in RIPA buffer containing protease inhibitors on ice. Total RNA was isolated using the RNeasy kit from Qiagen, prior to reverse transcription to obtain cDNA.

As for `N#Cc1cc(NC(=O)c2ccc3c(c2)c(C=O)cn3-c2ccccc2)ccn1` [Compound 2, N-(2-cyanopyridin-4-yl)-3-formyl-1-phenyl-1H-indole-5-carboxamide], the IC50 (usually the point on the concentration scale where inhibition reaches its midpoint) against WWP1 [1] was determined as 26 µM.
On the same count and under the same terms, in the case of `O=C(O)c1ccc2[nH]cc(Cc3c[nH]c4ccccc34)c2c1` [Compound 3, 3-((1H-indol-3-yl)methyl)-1H-indole-5-carboxylic acid] it was about 300 µM.
Take `O=C(O)c1ccc2c(Cc3c[nH]c4ccccc34)c[nH]c2c1` [Compound 4, 3-((1H-indol-3-yl)methyl)-1H-indole-6-carboxylic acid]: the IC50 came to 29 µM against WWP1 [1] and 0.08 µM in the assay on DU-145 cells.
For `C#CCNC(=O)c1ccc2c(Cc3c[nH]c4ccccc34)c(C)[nH]c2c1` [Compound 5, 3-((1H-indol-3-yl)methyl)-2-methyl-N-(prop-2-yn-1-yl)-1H-indole-6-carboxamide], the IC50 stood at 45 µM at WWP1 [1] and 5.48 µM in the assay on DU-145 cells.
`Fc1cccc2[nH]cc(Cc3c[nH]c4cccc(F)c34)c12` [Compound 8, bis(4-fluoro-1H-indol-3-yl)methane]: the “S6 phosphorylation (relative to total S6 or vinculin loading control)” value in assay [2] is “reduced”. Moreover, the “PD-L1 levels (relative to vinculin loading control)” value in the assay with PD-L1 [3] is “reduced”. Besides, the values for the IC50 at WWP1 [1] and in the assay with DU-145 cells were 49 µM and 12 µM, respectively.
On WWP1 [1], `Fc1ccc2[nH]cc(Cc3c[nH]c4ccc(F)cc34)c2c1` [Compound 9, bis(5-fluoro-1H-indol-3-yl)methane] showed an IC50 of 66 µM.
With `OCc1c[nH]c2ccccc12` [Compound I3C, Indole-3-carbinol], the “impact on SARS-CoV-2 infection” value in the assay with SARS-CoV-2 (2.5 μM) is recorded as “little impact on infection”. In addition, the “inhibition of SARS-CoV-2 infection” value in the assay on SARS-CoV-2 (5 μM) was over 75%.
Regarding “interferon gamma: interferon gamma, a stimulator of PD-L1 expression”, the WWP1 levels entry with WWP1 [4] is “reduced”. The “KD (reduction) of WWP1 mRNA by qPCR” value in the assay with WWP1 mRNA is reported as 15%. Further, in the assay with PD-L1 [5] (MCF-7 cells (ER+)), the “induced PD-L1 expression” value is “not readily observable”. Besides, in the assay with PD-L1 [5] (TNBCs (Hs578T, BT-20)), the “PD-L1 protein levels relative to vinculin” value was “upregulates”.

The values above are taken from patent US20230227406A1, “MODULATORS OF E3 LIGASES” (Rekindle Therapeutics Inc., priority 2020, published 2023).
